Assay [1] concerns MDA-MB-435. In words: Cytotoxicity against human MDA-MB-435 cells. The assay is classed as functional, cell-based.
Assay [2] concerns the target Methionine aminopeptidase 2 (Homo sapiens, UniProt P50579). In words: Inhibition of human MetAP2.
Assay [3] concerns MDA-MB-435. The assay can be described thus: Cytotoxicity against human MDA-MB-435 cells assessed as reduction in cell viability after 72 hrs by MTS assay. The note with it: MDA-MB-435, 72 h. (In general: Formazan colour is commonly taken as a measure of viable cells.)
In assay [4] the test system is MDA-MB-435. In words: Cytotoxicity against human MDA-MB-435 cells assessed as reduction in cell viability after 24 hrs by MTT assay. The assay is classed as functional, cell-based. The settings on record: MDA-MB-435, 24 h.
Assay [5] concerns MDA-MB-231. The assay can be described thus: Cytotoxicity against human MDA-MB-231 cells. The assay is classed as functional, cell-based.
For assay [6], the system named is A549. In words: Antiproliferative activity against human A549 cells after 96 hrs. The note with it: A549, 96 h.
In assay [7] the test system is HCT-116. The assay can be described thus: cells. The note with it: Homo sapiens, HCT-116, 96 h.
Description: Antiproliferative activity against human HCT116 cells after 96 hrs
The test system of assay [8] is HT-1080. The assay can be described thus: Cytotoxicity against human HT1080 cells.
Assay [9] addresses Methionine aminopeptidase 1 (Homo sapiens, UniProt P53582). The assay can be described thus: Inhibition of human MetAP1.

Each structure is given as a SMILES string.

Chain of Methionine aminopeptidase 2 (P50579 whole entry): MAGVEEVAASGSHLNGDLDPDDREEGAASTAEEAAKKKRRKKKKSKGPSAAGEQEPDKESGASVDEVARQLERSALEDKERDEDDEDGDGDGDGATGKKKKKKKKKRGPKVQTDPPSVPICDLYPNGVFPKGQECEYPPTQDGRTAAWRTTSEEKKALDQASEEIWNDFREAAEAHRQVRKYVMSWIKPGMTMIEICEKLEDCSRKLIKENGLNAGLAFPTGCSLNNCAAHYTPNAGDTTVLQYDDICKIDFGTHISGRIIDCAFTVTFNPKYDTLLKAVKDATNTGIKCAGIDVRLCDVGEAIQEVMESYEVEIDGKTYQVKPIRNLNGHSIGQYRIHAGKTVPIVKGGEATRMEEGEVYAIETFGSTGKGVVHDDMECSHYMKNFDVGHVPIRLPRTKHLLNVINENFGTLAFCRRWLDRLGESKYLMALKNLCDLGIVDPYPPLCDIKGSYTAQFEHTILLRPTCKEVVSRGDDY

In the case of `CNC(=O)[C@H](CC(C)C)NC(=O)[C@H](OC)[C@H](O)[C@@H](O)[C@H](O)/C=C/C(C)(C)C`, the IC50 (as a rule, the point on the concentration scale where inhibition reaches its midpoint) in assay [1] came to 20000 nM.

Consider `CO[C@@H](C(=O)N[C@H]1CCCCNC1=O)[C@H](O)[C@@H](O)[C@H](O)/C=C/C1CCCC1`, for which, in [1], 0.4 nM corresponded to half-maximal inhibition (IC50).

The compound `COc1ccc(N2CCN(c3nc(-c4ccccn4)nc4ccccc34)CC2)cc1` gave an IC50 in assay [2] above 100000 nM. For `CC(C)/C=C/[C@@H](O)[C@H](O)[C@@H](O)[C@@H](O)C(=O)N[C@H]1CCCCNC1=O`, the IC50 in [3] came out at 12000 nM. For the compound `CO[C@@H](C(=O)N[C@@H](C)C(=O)NCCOC(=O)C1CCCCC1)[C@H](O)[C@@H](O)[C@H](O)/C=C/C(C)(C)C`, the IC50 in assay [4] came to 4 nM. On to `CO[C@@H](C(=O)N[C@H]1CC[C@H](OC(=O)CCCCCCCCCCC(C)C)CN(C)C1=O)[C@H](O)[C@@H](O)[C@H](O)/C=C/C(C)C`, for which, in [2], the IC50 is above 50000 nM. As to `CO[C@@H](C(=O)N[C@H]1CC[C@H](O)CN(C)C1=O)[C@H](O)[C@@H](O)[C@H](O)/C=C/C(C)C` [BENGAMIDE F], in assay [3], the IC50 is 3 nM.

Regarding `CO[C@@H](C(=O)N[C@H]1CCCCNC1=O)[C@H](O)[C@@H](O)[C@H](O)/C=C\C(C)C`, in assay [1], it took 14 nM to reach half-maximal inhibition (IC50).

With `CO[C@H]1[C@@H](OC(=O)/C=C/C=C/C=C/C=C/C(=O)O)CC[C@]2(CO2)[C@@H]1[C@@]1(C)O[C@@H]1CC=C(C)C`, the IC50 in [2] came to 200 nM; in assay [5], 54 nM. Compound `CO[C@H](C(=O)N[C@H]1CCCCNC1=O)[C@@H](O)[C@H](O)[C@@H](O)/C=C/C(C)C` registered an IC50 in [1] of 4 nM.

On to `CO[C@@H](C(=O)N[C@H]1CC[C@@H](OC(=O)C2CCCCC2)CNC1=O)[C@H](O)[C@@H](O)[C@H](O)/C=C/C(C)(C)C`, for which the IC50 in assay [6] is 13 nM; in [7], 23 to 40 nM; in assay [3] it was 40 nM.

As for `CO[C@@H](C(=O)N[C@H]1CCc2ccccc2NC1=O)[C@H](O)[C@@H](O)[C@H](O)/C=C/C(C)(C)C`, the IC50 in assay [6] was found to be 9 nM; in [7] it was 44 nM; in assay [3], 3.8 nM. For `CC(C)(C)OC(=O)Nc1cccnc1C(=O)Nc1nccs1`, the IC50 in assay [8] was 300 nM; in assay [2], above 300000 nM.

For the compound `CCCCCCCCCCCCCC(=O)OCCC[C@H](NC(=O)[C@H](OC)[C@H](O)[C@@H](O)[C@H](O)/C=C/C(C)(C)C)C(=O)NC`, the IC50 in assay [1] worked out at 190 nM.

For `CCCCCCCCCCCCCC(=O)O[C@H]1CC[C@H](NC(=O)[C@H](OC)[C@H](O)[C@@H](O)[C@H](O)/C=C/C(C)C)C(=O)N(C)C1` [BENGAMIDE B], the IC50 in assay [3] was 2 nM.

As to `CO[C@H](C(=O)N[C@@H]1CCCCNC1=O)[C@@H](O)[C@H](O)[C@@H](O)/C=C/C(C)C`, the IC50 in assay [7] is above 50000 nM. As for `CCCCCCCCCCCCCC(=O)O[C@H]1CC[C@H](NC(=O)[C@H](OC)[C@H](O)[C@@H](O)[C@H](O)/C=C/C(C)C)C(=O)NC1` [BENGAMIDE A], the IC50 in [7] is 0.4 to 16 nM; in assay [3], 1 nM. In assay [1], `CO[C@@H](C(=O)N[C@H]1CCCCN(CCOC(=O)C2CCCCC2)C1=O)[C@H](O)[C@@H](O)[C@H](O)/C=C/C(C)(C)C` gave an IC50 of 17 nM. With `CO[C@@H](C(=O)N[C@H]1CCCCNC1=O)[C@H](O)[C@@H](O)[C@H](O)/C=C/C(C)C` [BENGAMIDE E], the figures for the IC50 in assay [7], in [3] and in [1] were 3.8 to 600 nM, 4 to 7 nM and 3.8 nM, respectively. For the compound `CO[C@@H](C(=O)N[C@H]1CC[C@@H](OC(=O)C2CCCCC2)CNC1=O)[C@H](O)[C@@H](O)[C@H](O)/C(C)=C/C(C)(C)C`, the IC50 in assay [7] was 140 nM; in [9], above 10000 nM.

The values are drawn from ChEMBL document CHEMBL4052606, “The Bengamides: A Mini-Review of Natural Sources, Analogues, Biological Properties, Biosynthetic Origins, and Future Prospects” (J Nat Prod, 2017).
